{
  "source": "patent US5446023A",
  "about": "“Amphiphilic compounds derived from amino acids or peptides, their methods of synthesis and their application as drug delivery systems” (Alliance Pharmaceutical Corporation, priority 1992, dated 1995)",
  "key": {"[1]": {"type": "physicochemical", "parameters": "formation of vesicles after sonication: dose or concentration left out as unconfirmed", "experimental": "(§1) Product 6a (30 mg) was dissolved in a mixture of chloroform/methanol (1/1 v/v) in a round 4 mL tube. The solvent was evaporated in a rotavapor until a uniform film was obtained. The remaining traces of solvent were eliminated under vacuum. Water for injectable preparations (3.97 mL) was added to the dried product. After stirring with a Vortex for 3 minutes, sonication (BRANSON B30, 7 mm probe, Power 5, pulsed mode 50, 15 minutes) at 20° C. above the phase-transition temperature gave a bluish dispersion.\nAn aqueous dispersion of compound 7b ([…], 60 mM) in citric acid (2 ml, 1M pH=4) was prepared (sonication, probe 3 mm, power5, room temperature, 5 min, mean diameter=35 nm). […] Adriamycin (12 ml, 30 mM) was added to the liposomal dispersion. The amount of drug encapsulated, the stability of encapsulation over time and the release of adriamycin were measured."}, "[2]": {"experiment": "Identification of vesicles by (transmission) electronic microscopy, negative staining", "type": "physicochemical", "settings": "for formation of vesicles (transmission electronic microscopy): negative staining, after dispersion; for formation of vesicles: procedure of example 14, 10^-2 M; for formation of vesicles / formation of vesicles upon dispersion with water: electronic microscopy; for formation of vesicles upon dispersion with water: 10^-2 M", "experimental": "as §1\nThe formation of vesicles was observed by transmission electronic microscopy by the negative staining method. The lipidic dispersion was applied on a grid covered with FORMVAR membrane. The sample was colored by depositing of a drop of phosphotungstic acid (2%, pH adjusted to 7) for 1 min. The excess acid was removed using a filter paper. The grid was then dried and the sample was examined using a PHILIPS microscope (CM2 Model) at 80 Kv.\nFIG. 1 is a micrography obtained in these conditions on a 10^-2 M dispersion of product 6a."}, "[3]": {"experiment": "Differential scanning calorimetry: phase transition temperature and transition enthalpy", "type": "physicochemical", "experimental": "The phase transition temperatures and the transition enthalpies were determined after hydration by a known quantity of water using a SETARAM DSC-92 apparatus.\nExample 22: Product 6d (16 mg) was hydrated with […] of a mixture of water/ethylene glycol 60/40 (hydratation percentage 28%).\nExample 23: Product 6a (10.8 mg) was hydrated with a mixture of water/ethylene glycol 60/40 (hydration percentage 37%)."}, "[4]": {"experiment": "In vivo toxicity in mice, rapid intraperitoneal injection", "settings": "mouse, in vivo, ip", "experimental": "(§2) In vivo toxicity of products 6a, 6b, 6c in mice. A rapid intraperitoneal injection was made, of 0.5 mL (25 mL/kg animal body weight, n=10) of a dispersion of these products in physiological water."}, "[5]": {"system": "mice", "experiment": "In vivo toxicity in mice, rapid intraperitoneal injection", "settings": "500 mg/kg", "experimental": "as §2"}, "[6]": {"system": "lymphoblastoid cell cultures of the Namalva type", "experiment": "Toxicity on lymphoblastoid cell cultures (Namalva)", "type": "cell-based", "settings": "4 days at 37° C.", "experimental": "Example 26: The toxicity of products 6a and 6e was determined on lymphoblastoid cell cultures of the Namalva type in an RPMI medium containing 10% of foetal calf serum at 37° C. under 7% CO2, according to the method described by M. Le Blanc et al in Pharm. Res. 195 (1988)."}, "[7]": {"experiment": "Observation of vesicles by electronic microscopy after freeze-fracture", "type": "physicochemical", "settings": "10^-2 M dispersions", "experimental": "One drop of lipic dispersion (about […]) was placed on a copper support. Freezing was realized by rapid immersion in liquid propane […]. The fractures were realized using a Balzers BAF 300 at -120° C. under 10^-6 mmHg with a knife cooled to -150° C. The replicas were obtained by depositing a platinum layer (10-20 A) under an angle of 35° then carbon (110-120 A) with an angle of 90°. The replicas were then immersed in water, washed, placed on a copper grid (3 mm, 300 mesh) and examined with a HITACHI 600 electronic microscope (H600) at 75 KV. […] FIG. 2 represents the photomicrographs obtained on 10^-2 M dispersions of products 6b, 7a, 7b."}, "[8]": {"system": "human erythrocytes", "experiment": "Hemolytic activity on human erythrocytes", "type": "cell-based", "settings": "concentration of 50 g/l, 1 hour, 37° C.", "experimental": "Example 25: The hemolytic activity of products 6h, 6i was determined by adding 2 mL of a solution of these products in physiological water to an equal volume of a 1% suspension of human erythrocytes in an isotonic phosphate buffer. After an hour of incubation at 37° C. the solutions were centrifuged. The degree of hemolysis was determined spectrophotometrically (540 nm) by comparing the quantity of hemoglobin liberated in the supernatant. Compounds 6h, 6i were not hemolytic at a concentration of 50 g/l."}, "[9]": {"experiment": "In vivo toxicity in mice, rapid intravenous injection", "settings": "mouse, in vivo, caudal vein, 25 mL/kg, 6i/Pluronic F-68 25/10 g/L, mice, read-out: tolerated dose", "experimental": "(§3) Example 24: In vivo toxicity of product 6i in mice. A rapid intravenous injection into the caudal vein, of 0.5 mL (25 mL/kg animal body weight) of a solution of 6i in physiological water, to which Pluronic F-68 was added as dispersant (25/10 g/L, 6i/Pluronic F-68) was made."}, "[10]": {"system": "mice", "experiment": "In vivo toxicity in mice, rapid intravenous injection", "settings": "625 mg/kg, 1 month of observation, 10 mice", "experimental": "as §3"}, "[11]": {"settings": "water/ethylene glycol 60/40, hydration percentage 37%"}, "[12]": {"settings": "intraperitoneal, 25 mL/kg dispersion in physiological water, mice, read-out: tolerated dose"}, "[13]": {"settings": "intraperitoneal, 1 month of observation, 10 mice"}, "[14]": {"settings": "water/ethylene glycol 60/40, hydration percentage 28%, -10° C. to 45° C., 2° C./min"}},
  "data": [
    {"smiles": "C=CCCCCCCCCC(CCCCCCCCCCCC)NC(=O)CNC(=O)[C@H](O)[C@@H](O)[C@H](O[C@@H]1O[C@H](CO)[C@H](O)[C@H](O)[C@H]1O)[C@H](O)CO", "note": "(stereo partly drawn) [Product 6a, Nα-[1-lactobionocarbonyl]-N-11[trieicos-1-en-yl] glycinamide]", "values": [
      {"measurement": "stability of dispersion (particle size)", "setting": "[1]", "result": "at least 1 month"},
      {"measurement": "effect of sterilization on vesicles", "setting": "[1]; 121° C. for 15 minutes", "result": "did not significantly modify these vesicles"},
      {"measurement": "average particle diameter Φ after sterilization", "setting": "[1]; after sterilization at 121° C. for 15 minutes", "result": 61, "unit": "nm"},
      {"measurement": "average particle diameter Φ before sterilization", "setting": "[1]; before sterilization at 121° C. for 15 minutes", "result": 58, "unit": "nm"},
      {"measurement": "average particle diameter Φ", "setting": "[1]; dispersion after sonication 15 min", "result": 49, "unit": "nm"},
      {"measurement": "formation of vesicles (transmission electronic microscopy)", "setting": "[2]", "result": "formation of vesicles was also observed"},
      {"measurement": "Tc (phase transition temperature)", "setting": "[3]; [11]", "result": 22, "unit": "°C"},
      {"measurement": "transition enthalpy", "setting": "[3]; [11]", "result": -11.6, "unit": "mcal/mg"},
      {"measurement": "MTD at 730 h", "setting": "[4]", "result": 500, "unit": "mg/kg"},
      {"measurement": "deaths", "setting": "[5]; mouse, in vivo, ip", "result": "no deaths occurred"},
      {"measurement": "effect on growth and viability of the cells", "setting": "[6]", "result": "did not affect the growth and viability of the cells"}
    ]},
    {"smiles": "C=CCCCCCCCCC(CCC(F)(F)C(F)(F)C(F)(F)C(F)(F)C(F)(F)C(F)(F)C(F)(F)C(F)(F)F)NC(=O)CNC(=O)[C@H](O)[C@@H](O)[C@H](O[C@@H]1O[C@H](CO)[C@H](O)[C@H](O)[C@H]1O)[C@H](O)CO", "note": "(stereo partly drawn) [Product 6b, N-α-[1-lactobionocarbonyl]-N-3-[1-(perfluooctyl)tridec-12-enyl] glycinamide]", "values": [
      {"measurement": "formation of vesicles", "setting": "[2]", "result": "led to the formation of vesicles"},
      {"measurement": "formation of vesicles (freeze-fracture)", "setting": "[7]", "result": "formation of vesicles was established"},
      {"measurement": "MTD at 730 h", "setting": "[4]; [12]", "result": 500, "unit": "mg/kg"},
      {"measurement": "deaths", "setting": "[5]; [13]", "result": "no deaths occurred"}
    ]},
    {"smiles": "C=CCCCCCCCCC(CCC(F)(F)C(F)(F)C(F)(F)C(F)(F)C(F)(F)C(F)(F)F)NC(=O)CNC(=O)[C@H](O)[C@@H](O)[C@H](O[C@@H]1O[C@H](CO)[C@H](O)[C@H](O)[C@H]1O)[C@H](O)CO", "note": "(stereo partly drawn) [Product 6c]", "values": [
      {"measurement": "MTD at 730 h", "setting": "[4]; [12]", "result": 500, "unit": "mg/kg"},
      {"measurement": "deaths", "setting": "[5]; [13]", "result": "no deaths occurred"}
    ]},
    {"smiles": "CCCCCCCCCCCCC(CCCCCCCCCCC)NC(=O)CNC(=O)[C@H](O)[C@@H](O)[C@H](O[C@@H]1O[C@H](CO)[C@H](O)[C@H](O)[C@H]1O)[C@H](O)CO", "note": "(stereo partly drawn) [Product 6d, N-α-1-[lactobionocarbonyl]-N-12-[tetraeicosyl] glycinamide]", "values": [
      {"measurement": "formation of vesicles", "setting": "[2]", "result": "led to the formation of vesicles"},
      {"measurement": "Tc (phase transition temperature)", "setting": "[3]; [14]", "result": 14, "unit": "°C"},
      {"measurement": "transition enthalpy", "setting": "[3]; [14]", "result": -10.29, "unit": "mcal/mg"}
    ]},
    {"smiles": "CCCCCCCCCC(CCC(F)(F)C(F)(F)C(F)(F)C(F)(F)C(F)(F)C(F)(F)F)NC(=O)CNC(=O)[C@H](O)[C@@H](O)[C@H](O[C@@H]1O[C@H](CO)[C@H](O)[C@H](O)[C@H]1O)[C@H](O)CO", "note": "(stereo partly drawn) [Product 6e, N-α-1-[lactobionocarbonyl]-N-3-[1-(perfluorohexyl)dodecyl] glycinamide]", "values": [
      {"measurement": "formation of vesicles after sonication", "setting": "[1]; sonication 20 minutes", "result": "led to the formation of vesicles"},
      {"measurement": "average diameter of vesicles after sterilization", "setting": "[1]; sonication 20 minutes, after sterilization", "result": 318, "unit": "nm"},
      {"measurement": "effect on growth and viability of the cells", "setting": "[6]", "result": "did not affect the growth and viability of the cells"}
    ]},
    {"smiles": "O=C(CNC(=O)[C@H](O)[C@@H](O)[C@H](O[C@@H]1O[C@H](CO)[C@H](O)[C@H](O)[C@H]1O)[C@H](O)CO)NCCC(F)(F)C(F)(F)C(F)(F)C(F)(F)C(F)(F)C(F)(F)F", "note": "[Product 6h, Nα-1-[lactobionocarbonyl]N-1-[2-(perfluorohexyl)ethyl] glycinamide]", "values": [
      {"measurement": "hemolytic activity", "setting": "[8]", "result": "not hemolytic"},
      {"measurement": "effect on growth and viability of the cells", "setting": "[6]", "result": "did not affect the growth and viability of the cells"}
    ]},
    {"smiles": "O=C(CNC(=O)[C@H](O)[C@@H](O)[C@H](O[C@@H]1O[C@H](CO)[C@H](O)[C@H](O)[C@H]1O)[C@H](O)CO)NCCC(F)(F)C(F)(F)C(F)(F)C(F)(F)C(F)(F)C(F)(F)C(F)(F)C(F)(F)F", "note": "[Product 6i]", "values": [
      {"measurement": "MTD at 730 h", "setting": "[9]", "result": 625, "unit": "mg/kg"},
      {"measurement": "deaths", "setting": "[10]", "result": "no deaths occurred"},
      {"measurement": "hemolytic activity", "setting": "[8]", "result": "not hemolytic"},
      {"measurement": "effect on growth and viability of the cells", "setting": "[6]", "result": "did not affect the growth and viability of the cells"}
    ]},
    {"smiles": "CCCCCCCCCC(CCC(F)(F)C(F)(F)C(F)(F)C(F)(F)C(F)(F)C(F)(F)F)NC(=O)CNC(=O)CNC(=O)[C@H](O)[C@@H](O)[C@H](O[C@@H]1O[C@H](CO)[C@H](O)[C@H](O)[C@H]1O)[C@H](O)CO", "note": "(stereo partly drawn) [Product 7a]", "values": [
      {"measurement": "formation of vesicles upon dispersion with water", "setting": "[2]", "result": "forms monolayered vesicles almost instantaneously"},
      {"measurement": "formation of vesicles (transmission electronic microscopy)", "setting": "[2]", "result": "formation of vesicles was also observed"},
      {"measurement": "formation of vesicles (freeze-fracture)", "setting": "[7]", "result": "formation of vesicles was established"}
    ]},
    {"smiles": "C=CCCCCCCCCC(CCCCCCCCCCCC)NC(=O)CNC(=O)CNC(=O)[C@H](O)[C@@H](O)[C@H](O[C@@H]1O[C@H](CO)[C@H](O)[C@H](O)[C@H]1O)[C@H](O)CO", "note": "(stereo partly drawn) [Product 7b, N-α-(N-α-1-lactobionocarbonyl)-glycyl-N-11-(trieicos-1-enyl) glycinamide]", "values": [
      {"measurement": "mean diameter of liposomal dispersion", "setting": "[1]; 60 mM in citric acid 1M pH=4, sonication 5 min, room temperature", "result": 35, "unit": "nm"},
      {"measurement": "formation of vesicles upon dispersion with water", "setting": "[2]", "result": "forms monolayered vesicles almost instantaneously"},
      {"measurement": "formation of vesicles (transmission electronic microscopy)", "setting": "[2]", "result": "formation of vesicles was also observed"},
      {"measurement": "formation of vesicles (freeze-fracture)", "setting": "[7]", "result": "formation of vesicles was established"}
    ]}
  ]
}
